Laboratory results reported in patent US20230159527A1, “COMPOUNDS AS BCL-2 INHIBITORS” (Fochon Pharmaceuticals, Ltd., priority 2020, published 2023).
Where two headings read alike, the source gives them in different places.

Legend:
Type in all cases: cell-based
[1] = tested on: Toledo cells; assay: Cell proliferation assay, Toledo cells (MTS, 72 h); conditions: Toledo cells, MTS, read-out: Toledo IC50
In short: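 IC50 was derived from 490 nm absorbance after a 2 h MTS step. Before that, compounds at 1.5–10000 nM final (nine points) acted on Toledo cells for 72 h at 37 °C, 5% CO2. Cells were seeded at 30000/well in 10% FBS RPMI-1640 and rested 4 h before dosing.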

[2] = tested on: RS4;11-BCL-2 G101V cells; assay: Cell proliferation assay, engineered RS4;11 cells stably overexpressing BCL-2 G101V (MTS, 168 h); conditions: read-out: RS4, 11 BCL2- G101V
In short: (§1)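 Proliferation read-out: MTS for exactly 2 h, then absorbance at 490 nm, with IC50 derived from the fit. Before this, engineered RS4;11 lines (BCL-2 G101V, F104L; 5000 cells/well) were exposed 168 h at 37 °C to serially diluted compound, final 1.4–10000 nM.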

[3] = tested on: RS4;11-BCL-2 F104L cells; assay: Cell proliferation assay, engineered RS4;11 cells stably overexpressing BCL-2 F104L (MTS, 168 h); conditions: Homo sapiens, read-out: RS4, 11 BCL2-F104L
In short: as §1

SMILES	IC50 ([1]; Homo sapiens) [nM]	IC50 ([2]; Homo sapiens, RS4-11, 168 h) [nM]	IC50 [3] [nM]	IC50 [1] [nM]	IC50 [2] [nM]
CC(C)c1ccccc1[C@@H]1CCC[C@@H]1N1CC2(CCN(c3ccc(C(=O)NS(=O)(=O)c4cnc(NC[C@H]5CC[C@](C)(O)CC5)c([N+](=O)[O-])c4)c(Oc4cnc5[nH]cc(F)c5c4)c3)CC2)C1 (single isomer, unassigned) [Example A-149, 2-((3-fluoro-1H-pyrrolo[2,3-b]pyridin-5-yl)oxy)-N-((6-((((1r,4r)-4-hydroxy-4-methylcyclohexyl)methyl)amino)-5-nitropyridin-3-yl)sulfonyl)-4-(2-((1S,2S or 1R,2R)-2-(2-isopropylphenyl)cyclo-petyl)-2,7-diazaspiro[3.5]nonan-7-yl) benzamide]	1	1	1	–	–
CC(C)c1ccccc1[C@@H]1CCC[C@@H]1N1CC2(CCN(c3ccc(C(=O)NS(=O)(=O)c4cnc(NC[C@H]5CC[C@](C)(O)CC5)c([N+](=O)[O-])c4)c(Oc4cc5c(F)c[nH]c5nc4F)c3)CC2)C1 (single isomer, unassigned) [Example A-150, 2-((3,6-difluoro-1H-pyrrolo[2,3-b]pyridin-5-yl)oxy)-N-((6-((((1r,4r)-4-hydroxy-4-methylcyclohexyl)methyl)amino)-5-nitropyridin-3-yl)sulfonyl)-4-(2-((1S,2S or 1R,2R)-2-(2-isopropylphenyl)cyclo-petyl)-2,7-diazaspiro[3.5]nonan-7-yl) benzamide]	1	6	1	–	–
CC(C)c1ccccc1[C@@H]1CCC[C@@H]1N1CC2(CCN(c3ccc(C(=O)NS(=O)(=O)c4cnc(NC[C@H]5CC[C@](C)(O)CC5)c([N+](=O)[O-])c4)c(Oc4cc5c(F)c[nH]c5nc4Cl)c3)CC2)C1 (single isomer, unassigned) [Example A-151, 2-((6-chloro-3-fluoro-1H-pyrrolo[2,3-b]pyridin-5-yl)oxy)-N-((6-((((1r,4r)-4-hydroxy-4-methylcyclohexyl)methyl)amino)-5-nitropyridin-3-yl)sulfonyl)-4-(2-((1S,2S or 1R,2R)-2-(2-isopropylphenyl)cyclo-pentyl)-2,7-diazaspiro[3.5]nonan-7-yl)_ benzamide]	1	3	1	–	–
COc1nc2[nH]cc(F)c2cc1Oc1cc(N2CCC3(CC2)CN([C@H]2CCC[C@H]2c2ccccc2C(C)C)C3)ccc1C(=O)NS(=O)(=O)c1cnc(NC[C@H]2CC[C@](C)(O)CC2)c([N+](=O)[O-])c1 (single isomer, unassigned) [Example A-152, 2-((3-fluoro-6-methoxy-1H-pyrrolo [2,3-b]pyridin-5-yl)oxy)-N-((6-(((1r, 4r)-4-hydroxy-4-methylcyclohexyl)methyl)amino)-5-nitropyridin-3-yl) sulfonyl)-4-(2-((1S,2S or 1R,2R)-2-(2-isopropylphenyl)cyclo-pentyl)-2,7-diazaspiro[3.5]nonan-7-yl) benzamide]	1	40	9	–	–
COCCOc1nc2[nH]cc(F)c2cc1Oc1cc(N2CCC3(CC2)CN([C@H]2CCC[C@H]2c2ccccc2C(C)C)C3)ccc1C(=O)NS(=O)(=O)c1cnc(NC[C@H]2CC[C@](C)(O)CC2)c([N+](=O)[O-])c1 (single isomer, unassigned) [Example A-154, 2-((3-fluoro-6-(2-methoxyethoxy)-1H-pyrrolo[2,3-b]pyridin-5-yl)oxy)-N-((6-(((1r,4r)-4-hydroxy-4-methyl-cyclohexyl)methyl)amino)-5-nitro-pyridin-3-yl)sulfonyl)-4-(2-((1S,2S or 1R,2R)-2-(2-isopropylphenyyl)cyclo-pentyl)-2,7-diazaspiro[3.5]nonan-7-yl) benzamide]	1	57	19	–	–
CC(C)c1ccccc1[C@@H]1CCCN1C1CC2(CCN(c3ccc(C(=O)NS(=O)(=O)c4cc5c(c([N+](=O)[O-])c4)N[C@@H]([C@H]4CC[C@](C)(O)CC4)CO5)c(Oc4cnc5[nH]cc(F)c5c4)c3)CC2)C1 (single isomer, unassigned) [Example D-7, 2-((3-fluoro-1H-pyrrolo[2,3-b]pyridin-5-yl)oxy)-N-(((S)-3-((1r,4S)-4-hydroxy-4-methylcyclohexyl)-5-nitro-3,4-dihydro-2H-benzo[b] [1,4]oxazin-7-yl)sulfonyl)-4-(2-((R or S)-2-(2-isopropylphenyl)pyrrolidin-1-yl)-7-azaspiro[3.5]nonan-7-yl)benzamide]	1	1	14	–	–
COCCOc1nc2[nH]ccc2cc1Oc1cc(N2CCC3(CC2)CC(N2CCC[C@H]2c2ccccc2C(C)C)C3)ccc1C(=O)NS(=O)(=O)c1cc2c(c([N+](=O)[O-])c1)N[C@@H]([C@H]1CC[C@](C)(O)CC1)CO2 (single isomer, unassigned) [Example D-17, N-(((S)-3-((1r,4S)-4-hydroxy-4-methylcyclohexyl)-5-nitro-3,4-dihydro-2H-benzo[b][1,4]oxazin-7-yl)sulfonyl)-4-(2-((R or S)-2-(2-isopropylphenyl)pyrrolidin-1-yl)-7-azaspiro[3.5]nonan-7-yl)-2-((6-(2-methoxyethoxy)-1H-pyrrolo[2,3-b]pyridin-5-yl)oxy) benzamide]	1	1	22	–	–
CC(C)c1ccccc1[C@@H]1CCCN1C1CC2(CCN(c3ccc(C(=O)NS(=O)(=O)c4cc5c(c([N+](=O)[O-])c4)N[C@@H]([C@H]4CC[C@](C)(O)CC4)CO5)c(Oc4cc5cc[nH]c5nc4Cl)c3)CC2)C1 (single isomer, unassigned) [Example D-18, 2-((6-chloro-1H-pyrrolo[2,3-b]pyridin-5-yl)oxy)-N-(((S)-3-((1r,4S)-4-hydroxy-4-methylcyclohexyl)-5-nitro-3,4-dihydro-2H-benzo[b] [1,4]oxazin-7-yl)sulfonyl)-4-(2-((R or S)-2-(2-isopropylphenyl)pyrrolidin-1-yl)-7-azaspiro[3.5]nonan-7-yl)benzamide]	1	14	33	–	–
CC(C)c1ccccc1[C@@H]1CCC[C@@H]1N1CC2(CCN(c3ccc(C(=O)NS(=O)(=O)c4ccc(NC[C@H]5CC[C@](C)(O)CC5)c([N+](=O)[O-])c4)c(Oc4cnc5[nH]cc(F)c5c4)c3)CC2)C1 (single isomer, unassigned) [Example D-34b, 2-((3-fluoro-1H-pyrrolo[2,3-b]pyridin-5-yl)oxy)-N-((4-((((1r,4r)-4-hydroxy-4-methylcyclohexyl)methyl)amino)-3-nitrophenyl)sulfonyl)-4-(2-((1S,2S or 1R,2R)-2-(2-isopropylphenyl)cyclopentyl)-2,7-diazaspiro[3.5]nonan-7-yl)benzamide]	–	–	1	1	7
CC(C)c1ccccc1[C@@H]1CCCN1C1CC2(CCN(c3ccc(C(=O)NS(=O)(=O)c4cc5c(c([N+](=O)[O-])c4)N[C@@H]([C@H]4CC[C@](C)(O)CC4)CO5)c(Oc4cc5c(F)c[nH]c5nc4F)c3)CC2)C1 (single isomer, unassigned) [Example D-55, 2-((3,6-difluoro-1H-pyrrolo[2,3-b]pyridin-5-yl)oxy)-N-(((S)-3-((1r,4S)-4-hydroxy-4-methylcyclohexyl)-5-nitro-3,4-dihydro-2H-benzo [b][1,4]oxazin-7-yl)sulfonyl)-4-(2-((R or S)-2-(2-isopropylphenyl)pyrrolidin-1-yl)-7-azaspiro[3.5]nonan-7-yl)benzamide]	1	14	19	–	–
CC(C)c1ccccc1[C@@H]1CCCN1C1CC2(CCN(c3ccc(C(=O)NS(=O)(=O)c4cc5c(c([N+](=O)[O-])c4)N[C@@H]([C@H]4CC[C@](C)(O)CC4)CO5)c(Oc4cc5cc[nH]c5nc4OCCN(C)C)c3)CC2)C1 (single isomer, unassigned) [Example D-60, 2-((6-(2-(dimethylamino)ethoxy)-1H-pyrrolo[2,3-b]pyridin-5-yl)oxy)-N-(((S)-3-((1r,4S)-4-hydroxy-4-methylcyclohexyl)-5-nitro-3,4-dihydro-2H-benzo[b][1,4]oxazin-7-yl)sulfonyl)-4-(2-((R or S)-2-(2-isopropylphenyl)pyrrolidin-1-yl)-7-azaspiro[3.5]nonan-7-yl)benzamide]	1	1	1	–	–
CC(C)c1ccccc1[C@@H]1CCCN1C1CC2(CCN(c3ccc(C(=O)NS(=O)(=O)c4cc5c(c([N+](=O)[O-])c4)N[C@@H]([C@H]4CC[C@](C)(O)CC4)CO5)c(Oc4cc5cc[nH]c5nc4OCCN4CCC4)c3)CC2)C1 (single isomer, unassigned) [Example D-61, 2-((6-(2-(azetidin-l-yl)ethoxy)-1H-pyrrolo[2,3-b]pyridin-5-yl)oxy)-N-(((S)-3-((1r,4S)-4-hydroxy-4-methylcyclohexyl)-5-nitro-3,4-dihydro-2H-benzo[b][1,4]oxazin-7-yl)sulfonyl)-4-(2-((R or S)-2-(2-isopropylphenyl)pyrrolidin-1-yl)-7-azaspiro[3.5]nonan-7-yl)benzamide]	1	1	11	–	–
CC(C)c1ccccc1[C@@H]1CCCN1C1CC2(CCN(c3ccc(C(=O)NS(=O)(=O)c4cc5c(c([N+](=O)[O-])c4)N[C@@H]([C@H]4CC[C@](C)(O)CC4)CO5)c(Oc4cc5cc[nH]c5nc4F)c3)CC2)C1 (single isomer, unassigned) [Example D-64, 2-((6-fluoro-1H-pyrrolo[2,3-b]pyridin-5-yl)oxy)-N-(((S)-3-((1r,4S)-4-hydroxy-4-methylcyclohexyl)-5-nitro-3,4-dihydro-2H-benzo[b] [1,4]oxazin-7-yl)sulfonyl)-4-(2-((R or S)-2-(2-isopropylphenyl)pyrrolidin-1-yl)-7-azaspiro[3.5]nonan-7-yl)benzamide]	1	1	25	–	–
